From patent US12396949B2, “Technology for improving properties of lipid nanoparticles using lipids in which cis-unsaturated bonds are substituted with a silicon atom” (The Regents of the University of California, priority 2022, dated 2025)
“And” between values parts separate entries of the source, which are not always exact repeats. Equal entries are not always repeated.

Columns and labels:
Type in all cases: physicochemical
[1] = Average zeta potential of liposomes made from cationic silyl lipids (Tables 1A, 1B); details: Table 1A; liposome formulations of the cationic silyl lipid only in Milli Q purified water
Description: (§1) For colloidal dispersions, zeta potential is a useful measurement of the difference in electrokinetic potential between the dispersion medium and the stationary layer of fluid attached to the dispersed particle. The magnitude of the zeta potential indicates the degree of electrostatic repulsion between adjacent, similarly charged particles in a dispersion. A high zeta potential is an indicator of stability (resistance to aggregation). Both zeta potential and size can be determined using a zeta Potential Analyzer. Clogston J D et al., Methods Mol Biol. 2011; 697:63-70.
(§2) FIGS. 5A to 5C and TABLE 1A provide an illustration of such empirical determination: the effect of the length of the lipid tail, the end group, and the positioning of the silyl group. In this illustration, other properties of the lipid structure and liposome composition were kept constant. The liposome formulations just contained the cationic silyl lipids indicated, and Milli Q™ purified water.
(§3) FIGS. 7A to 7C and TABLE 1B provide another illustration of how structure of the silyl lipid can affect properties of nanoparticles.
(§4) Structural features such as tail length, positioning of the silicon group (n1, n2), and branching (as in 8,Si, (8)3-DOTMA) can influence liposome properties.

[2] = Average size of liposomes made from cationic silyl lipids (Tables 1A, 1B); details: Table 1A; liposome formulations of the cationic silyl lipid only in Milli Q purified water
Description: as §1, §2, §3, §4

[3] = Liposome zeta potential, dynamic light scattering (silyl-DOTAP liposomes); details: three liposome solutions, 1 mg/mL in Milli Q water, DLS
Method: (§5) FIGS. 8A, 8B, and 8C show the measured size, zeta potential, and RNA encapsulation efficiency (EE) of lipid nanoparticles (LNPs) containing silyl-DOTAP lipids, compared with traditional DOTAP-derived LNPs. The data in FIG. 8A were obtained from three liposome solutions, whereupon the average size was determined using dynamic light scattering (DLS). The data in FIG. 8B were obtained from three liposome solutions, whereupon the average zeta potential was determined using dynamic light scattering (DLS). The data in FIG. 8C represent RNA encapsulation efficiency, determined for each lipid using the Quant-It RiboGreen fluorescence assay.
(§6) FIGS. 8A, 8B, and 8C provide an analysis of size, zeta potential, and RNA encapsulation efficiency (EE) of lipid nanoparticles (LNPs) composed of silyl-DOTAP lipids, compared with traditional DOTAP-derived LNPs. The data in FIG. 8A were obtained from three liposome solutions (1 mg/mL in Milli Q water) for each lipid, which were formed via thin film hydration/bath sonication and the average size by intensity was determined using dynamic light scattering (DLS). The data in FIG. 8B were obtained from three liposome solutions (1 mg/mL in Milli Q water) for each lipid, which were formed via thin film hydration/bath sonication and the average zeta potential was determined using dynamic light scattering (DLS).
(§7) The values shown are the average standard deviation size by intensity, zeta potential, and RNA EE shown in FIGS. 8A to 8C for each lipid. Footnotes: a: One trial corresponds to one liposome solution (1 mg/ml). […] DOTAP is 198 nm and 8SiPh is 183±65 nm when excluding this large aggregate/outlier.

RNA standard = assay: RNA encapsulation efficiency, Quant-It RiboGreen fluorescence assay; details: for RNA EE (RNA encapsulation efficiency): RNA-lipid complex 10:1 wt/wt lipid/RNA, 15 min room temperature, three aliquots; for RNA EE compared with DOTAP: comparison in words
Method: as §5
The data in FIG. 8C represent RNA encapsulation efficiency. One RNA-lipid complex solution (10:1 wt/wt lipid/RNA) was formed for each lipid by incubating the silyl liposomes with RNA standard at room temperature for fifteen minutes. The average RNA EE of three aliquots of RNA-lipid complex solution was determined for each lipid using the Quant-It RiboGreen fluorescence assay.
as §7

[4] = Liposome size by intensity, dynamic light scattering (silyl-DOTAP liposomes); details: for size (size by intensity, average ± standard deviation): three liposome solutions, thin film hydration/bath sonication, all trials; for size (size by intensity, average ± standard deviation) / size by intensity when excluding large aggregate/outlier: 1 mg/mL in Milli Q water; for size (size by intensity, average ± standard deviation) / size by intensity when excluding large aggregate/outlier / large aggregate/outlier in size by intensity distribution of one trial: DLS; for size by intensity when excluding large aggregate/outlier: outlier trial peak excluded; for large aggregate/outlier in size by intensity distribution of one trial: one of three trials; for average LNP size compared with DOTAP: comparison in words
Method: as §5, §6, §7

SMILES	Avg. zeta Potential [1]	Avg. Size [2] [nm]	zeta (average zeta potential ± standard deviation) [3]	RNA EE (RNA encapsulation efficiency) (RNA standard) [%]	RNA EE compared with DOTAP (RNA standard)	size (size by intensity, average ± standard deviation) [4] [nm]	size by intensity when excluding large aggregate/outlier [4] [nm]	large aggregate/outlier in size by intensity distribution of one trial [4] [nm]	average LNP size compared with DOTAP [4]
C[N+](C)(C)CC(COC(=O)CCCC[Si](C)(C)C1CCCCC1)OC(=O)CCCC[Si](C)(C)C1CCCCC1 (stereo not drawn) [QP5SiCy]	71 mV and 124 mV	80							
C[N+](C)(C)CC(COC(=O)CCCC[Si](C)(C)C1CCCCC1)OC(=O)CCCC[Si](C)(C)C1CCCCC1 (stereo not drawn) [5SiCy]			88 ± 5 mV	85 ± 4	higher EE than DOTAP	169 ± 1			
CCCCCCCC[Si](C)(C)CCCCCCCC(=O)OCC(C[N+](C)(C)C)OC(=O)CCCCCCC[Si](C)(C)CCCCCCCC (stereo not drawn) [QP8Si8]	67 mV	38							
CCCC[Si](C)(C)CCCCC(=O)OCC(C[N+](C)(C)C)OC(=O)CCCC[Si](C)(C)CCCC (stereo not drawn) [QP5Si4]	65 mV	21							
C[N+](C)(C)CC(COC(=O)CCCCCCC[Si](C)(C)CCCc1ccccc1)OC(=O)CCCCCCC[Si](C)(C)CCCc1ccccc1 (stereo not drawn) [8Si3Ph]			91 ± 6 mV	53 ± 8		106 ± 35			
C[N+](C)(C)CC(COC(=O)CCCCC[Si](C)(C)C1CCCCC1)OC(=O)CCCCC[Si](C)(C)C1CCCCC1 (stereo not drawn) [6SiCy]			77 ± 5 mV	23 ± 0.2		188 ± 16			
CCCCCC[Si](C)(C)CCCCCCCC(=O)OCC(C[N+](C)(C)C)OC(=O)CCCCCCC[Si](C)(C)CCCCCC (stereo not drawn) [QP8Si6]	62 mV	38							
CCCC[Si](C)(C)CCCCCCCC(=O)OCC(C[N+](C)(C)C)OC(=O)CCCCCCC[Si](C)(C)CCCC (stereo not drawn) [QP8Si4]	33 mV and 44 mV	24							
CCCCCCCCCCC[Si](C)(C)CCCCC(=O)OCC(C[N+](C)(C)C)OC(=O)CCCC[Si](C)(C)CCCCCCCCCCC (stereo not drawn) [5Si11]			0 mV and 0 ± 0.05 mV		comparable RNA EEs to DOTAP	225 ± 24			
CCCCCCCCC[Si](C)(C)CCCCCCC(=O)OCC(C[N+](C)(C)C)OC(=O)CCCCCC[Si](C)(C)CCCCCCCCC (stereo not drawn) [7Si9]			73 ± 4 mV	59 ± 1		221 ± 40			
C[N+](C)(C)CC(COC(=O)CCCC[Si](C)(C)CCc1ccccc1)OC(=O)CCCC[Si](C)(C)CCc1ccccc1 (stereo not drawn) [5Si2Ph]			76 ± 2 mV	55 ± 4		198			
CCCCCCCC/C=C\CCCCCCCC(=O)OCC(C[N+](C)(C)C)OC(=O)CCCCCCC/C=C\CCCCCCCC.[Cl-] (stereo not drawn) [DOTAP, N-(1-(2,3-dioleoyloxy)propyl)-N,N,N-trimethylammonium chloride, reference compound]			34 ± 5 mV	65 ± 2		314 ± 201	198	838.3	
C[N+](C)(C)CC(COC(=O)CCCC[Si](C)(C)c1ccccc1)OC(=O)CCCC[Si](C)(C)c1ccccc1 (stereo not drawn) [5SiPh]			77 ± 6 mV	88 ± 9	higher EE than DOTAP	226 ± 75			
CCCCCC[Si](C)(C)CCCCCCCC(=O)OCC(C[N+](C)(C)C)OC(=O)CCCCCCC[Si](C)(C)CCCCCC (stereo not drawn) [8Si6]			84 ± 5 mV	48 ± 1		164 ± 36			
C[N+](C)(C)CC(COC(=O)CCCCCCC[Si](C)(C)C1CCCCC1)OC(=O)CCCCCCC[Si](C)(C)C1CCCCC1 (stereo not drawn) [8SiCy]			70 ± 3 mV	49 ± 4		199 ± 30			
CCCCCCCC[Si](C)(C)CCCCC(=O)OCC(C[N+](C)(C)C)OC(=O)CCCC[Si](C)(C)CCCCCCCC (stereo not drawn) [5Si8]			63 ± 14 mV	74 ± 6	higher EE than DOTAP	171 ± 26			
CCCC[Si](C)(C)CCCCCC(=O)OCC(C[N+](C)(C)C)OC(=O)CCCCC[Si](C)(C)CCCC (stereo not drawn) [6Si4]			91 ± 9 mV	41 ± 6		372 ± 93			noticeably larger average sizes than DOTAP
CCCCCCCC[Si](C)(C)CCCCCCCC(=O)OCC(C[N+](C)(C)C)OC(=O)CCCCCCC[Si](C)(C)CCCCCCCC (stereo not drawn) [8Si8]			73 ± 15 mV	50 ± 7	comparable RNA EEs to DOTAP	221 ± 40			
C[N+](C)(C)CC(COC(=O)CCCCCCC[Si](C)(C)CCc1ccccc1)OC(=O)CCCCCCC[Si](C)(C)CCc1ccccc1 (stereo not drawn) [8Si2Ph]			61 ± 12 mV	56 ± 10		275 ± 82			
CCCC[Si](C)(C)CCCCCCCC(=O)OCC(C[N+](C)(C)C)OC(=O)CCCCCCC[Si](C)(C)CCCC (stereo not drawn) [8Si4]			70 ± 2 mV	44 ± 7		198			
C[N+](C)(C)CC(COC(=O)CCCCCCC[Si](C)(C)c1ccccc1)OC(=O)CCCCCCC[Si](C)(C)c1ccccc1 (stereo not drawn) [8SiPh]			75 ± 6 mV	36 ± 5		397 ± 322	183±65	1406	
C[N+](C)(C)CC(COC(=O)CCCC[Si](C)(C)CCCc1ccccc1)OC(=O)CCCC[Si](C)(C)CCCc1ccccc1 (stereo not drawn) [5Si3Ph]			78 ± 3 mV	55 ± 3		208 ± 19			
C[N+](C)(C)CC(COC(=O)CCCCC[Si](C)(C)c1ccccc1)OC(=O)CCCCC[Si](C)(C)c1ccccc1 (stereo not drawn) [6SiPh]			81 ± 3 mV	76 ± 1	higher EE than DOTAP	448 ± 110			noticeably larger average sizes than DOTAP
